Data as given in patent publication US6090802A, “1- Methylcarbapenem derivatives” (Sankyo Company, Limited, priority 1995, dated 2000).
Values after ≈ are worked out from the molar mass of the structure shown.

Experiments:
[1] = tested on: Pseudomonas aeruginosa 1001; assay: Antibacterial activity, agar plate dilution method (MIC); assay type: cell-based; conditions: Microorganism C: Pseudomonas aeruginosa 1001; read-out: Minimal inhibitory concentration
Description: Antibacterial activity was measured by the agar plate dilution method, whereby the minimal inhibitory concentration (μg/ml) against various pathogenic bacteria was determined. In the Table, bacteria A, B and C provided for the test are as follows: C: Pseudomonas aeruginosa 1001

[2] = tested on: Staphylococcus aureus 209P; assay: as above; assay type: cell-based; conditions: Microorganism A: Staphylococcus aureus 209P; read-out: Minimal inhibitory concentration
Description: Antibacterial activity was measured by the agar plate dilution method, whereby the minimal inhibitory concentration (μg/ml) against various pathogenic bacteria was determined. In the Table, bacteria A, B and C provided for the test are as follows: A: Staphylococcus aureus […]

Escherichia coli NIHJ = assay: as above; assay type: cell-based; conditions: Microorganism B: Escherichia coli NIHJ; read-out: Minimal inhibitory concentration
Description: Antibacterial activity was measured by the agar plate dilution method, whereby the minimal inhibitory concentration (μg/ml) against various pathogenic bacteria was determined. In the Table, bacteria A, B and C provided for the test are as follows: B: Escherichia coli NIHJ

[3] = in words; background art; cited from earlier work

Row | Compound | MIC [1] [µg/mL] | MIC [2] [µg/mL] | MIC (Escherichia coli NIHJ) [µg/mL] | nephrotoxicity [3]
1 | C[C@@H](O)[C@H]1C(=O)N2C(C(=O)O)=C(S[C@@H]3CN[C@H](C(=O)N4CC[C@H](NC(=O)[C@@H]5CCCN5)C4)C3)[C@H](C)[C@H]12 [Ex. 1, (1R,5S,6S)-6-(1R)-[1-Hydroxyethyl]-1-methyl-2-[(2S,4S)-2-[(3S)-3-(L-prolylamino)pyrrolidin-1-ylcarbonyl]pyrrolidin-4-ylthio]-1-carbapen-2-em-3-carboxylic acid] | 0.1 (≈ 0.192 µM) | ≤ 0.01 | ≤ 0.01 | –
2 | C[C@@H](O)[C@H]1C(=O)N2C(C(=O)O)=C(S[C@@H]3CN[C@H](C(=O)N4CC[C@H](NC(=O)CNC(=N)N)C4)C3)[C@H](C)[C@H]12 [Ex. 8] | 0.05 (≈ 0.0955 µM) | ≤ 0.01 | ≤ 0.01 | –
3 | C[C@@H](O)[C@H]1C(=O)N2C(C(=O)O)=C(S[C@@H]3CN[C@H](C(O)CC(=O)N4CC[C@H](N)C4)C3)[C@H](C)[C@H]12 (stereo partly drawn) [Ex. 12, (1R,5S,6S)-2-[(2S,4S)-2-[1-Hydroxy-2-[(3S)-3-aminopyrrolidin-1-ylcarbonyl]ethyl]-pyrrolidin-4-ylthio]-6-[(1R)-1-hydroxyethyl]-1-methyl-1-carbapen-2-em-3-carboxylic acid] | 0.2 (≈ 0.427 µM) | ≤ 0.01 | 0.02 (≈ 0.0427 µM) | –
4 | C[C@@H](O)[C@H]1C(=O)N2C(C(=O)O)=C(S[C@@H]3CN[C@H](C(=O)N4CC(NC(=O)CCNC(=N)N)C4)C3)[C@H](C)[C@H]12 [Ex. 17, (1R,5S,6S)-2-[(2S,4S)-2-[3-(3-Guanidinopropanoylamino)azetidin-1-ylcarbonyl]-pyrrolidin-4-ylthio]-6-[(1R)-1-hydroxyethyl]-1-methyl-1-carbapen-2-em-3-carboxylic acid] | 0.05 (≈ 0.0955 µM) | ≤ 0.01 | ≤ 0.01 | –

Second part, led by results:

Row | MIC [1] [µg/mL] | MIC [2] [µg/mL] | MIC (Escherichia coli NIHJ) [µg/mL] | Compound | nephrotoxicity [3]
5 | 0.05 (≈ 0.093 µM) | ≤ 0.01 | ≤ 0.01 | C[C@@H](NC(=N)N)C(=O)N[C@H]1CCN(C(=O)[C@@H]2C[C@H](SC3=C(C(=O)O)N4C(=O)[C@H]([C@@H](C)O)[C@H]4[C@H]3C)CN2)C1 [Ex. 27, (1R,5S,6S)-2-[(2S,4S)-2-[(3S)-3-[(2R)-2-Guanidino-2-methylacetylamino]pyrrolidin-1-ylcarbonyl]pyrrolidin-4-ylthio]-6-[(1R)-1-hydroxyethyl]-1-methyl-1-carbapen-2-em-3-carboxylic acid] | –
6 | 0.4 (≈ 0.854 µM) | ≤ 0.01 | 0.02 (≈ 0.0427 µM) | C[C@@H](O)[C@H]1C(=O)N2C(C(=O)O)=C(S[C@@H]3CN[C@H](C(O)CC(=O)N[C@H]4CCNC4)C3)[C@H](C)[C@H]12 (stereo partly shown) [Ex. 49] | –
7 | 0.2 (≈ 0.392 µM) | ≤ 0.01 | 0.02 (≈ 0.0392 µM) | C[C@@H](O)[C@H]1C(=O)N2C(C(=O)O)=C(S[C@@H]3CN[C@H](C(O)CC(=O)N4CCN(C(=N)N)CC4)C3)[C@H](C)[C@H]12 (stereo partly drawn) [Ex. 51, (1R,5S,6S)-2-[(2S,4S)-2-[2-(4-Guanylpiperazin-1-ylcarbonyl)-1-hydroxyethyl]-pyrrolidin-4-ylthio]-6-[(1R)-1-hydroxyethyl]-1-methyl-1-carbapen-2-em-3-carboxylic acid] | –
8 | 0.2 (≈ 0.427 µM) | ≤ 0.01 | 0.02 (≈ 0.0427 µM) | C[C@@H](O)[C@H]1C(=O)N2C(C(=O)O)=C(S[C@@H]3CN[C@H]([C@H](O)CC(=O)N4CC[C@H](N)C4)C3)[C@H](C)[C@H]12 [Ex. 59, (1R,5S,6S)-2-[(2S,4S)-2-[2-[(3S)-3-Aminopyrrolidin-1-ylcarbonyl]-(1R)-1-hydroxyethyl]pyrrolidin-4-ylthio]-6-[(1R)-1-hydroxyethyl]-1-methyl-1-carbapen-2-em-3-carboxylic acid] | –
9 | 0.4 (≈ 0.854 µM) | ≤ 0.01 | 0.02 (≈ 0.0427 µM) | C[C@@H](O)[C@H]1C(=O)N2C(C(=O)O)=C(S[C@@H]3CN[C@H]([C@@H](O)CC(=O)N4CC[C@H](N)C4)C3)[C@H](C)[C@H]12 [Ex. 60, (1R,5S,6S)-2-[(2S,4S)-2-[2-[(3S)-3-Aminopyrrolidin-1-ylcarbonyl]-(1S)-1-hydroxyethyl]pyrrolidin-4-ylthio]-6-[(1R)-1-hydroxyethyl]-1-methyl-1-carbapen-2-em-3-carboxylic acid] | –
10 | 3.1 (≈ 10.4 µM) | ≤ 0.01 | 0.05 (≈ 0.167 µM) | C[C@@H](O)[C@H]1C(=O)N2C(C(=O)O)=C(SCCN=CN)C[C@H]12 [Imipenem, imipenem, reference compound] | exhibits nephrotoxicity
